This is an account of results in US20240402196A1 (Exact Sciences Corporation, priority 2018, published 2024).

Where two headings read alike, the source gives them in different places.

The test concerns the target hemoglobin in stool samples (Homo sapiens, UniProt P68871+P69905). Briefly: Accelerated shipping simulation (35C 16 hour challenge), hemoglobin % recovery by ELISA.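 Also: stool hemoglobin measured by ELISA before and after thermal-cycler shipping stress, stability given as percent of pre-stress hemoglobin recovered afterwards.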 Also on record: from tissue; host or cells: stool samples.

Sequence of hemoglobin in stool samples (P69905 2-142 limits assumed): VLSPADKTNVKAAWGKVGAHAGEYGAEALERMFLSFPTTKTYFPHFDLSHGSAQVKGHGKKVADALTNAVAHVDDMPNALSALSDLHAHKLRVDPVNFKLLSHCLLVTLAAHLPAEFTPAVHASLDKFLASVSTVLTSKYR
Sequence of hemoglobin in stool samples (P68871 2-147 limits assumed): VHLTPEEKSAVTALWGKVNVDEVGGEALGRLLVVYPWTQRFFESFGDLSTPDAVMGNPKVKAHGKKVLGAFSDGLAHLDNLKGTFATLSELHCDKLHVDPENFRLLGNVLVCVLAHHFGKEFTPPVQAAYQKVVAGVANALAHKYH

Regarding `O=C(O)CC(NCCNC(CC(=O)O)C(=O)O)C(=O)O` (stereo not shown), the Results entry is given as “No Improvement” (additive concentration 10 uM), “No Improvement” (additive concentration 100 uM), “No Improvement” (additive concentration 1 mM) and “No Improvement” (additive concentration 10 mM).
For the compound `O=C([O-])CC[C@@H](C(=O)[O-])N(CC(=O)[O-])CC(=O)[O-].[Na+].[Na+].[Na+].[Na+]`, the Results entry is recorded as “No Improvement” (Additive Concentration 0.1 uM); “No Improvement” (Additive Concentration 1 uM); “No Improvement” (additive concentration 5 uM); “No Improvement” (additive concentration 0.01 mM); “No Improvement” (additive concentration 0.1 mM); “No Improvement” (additive concentration 1 mM). Where the note is “additive concentration 10 mM”, the Results entry was “No Improvement”.
As for `CC(C(=O)[O-])N(CC(=O)[O-])CC(=O)[O-].O.[Na+].[Na+].[Na+]` (stereo not shown), the Results entry is, setting by setting: (additive concentration 0.1 mM) “No Improvement”; (additive concentration 1 mM) “No Improvement”; (additive concentration 10 mM) “No Improvement”.
Turning to `O=C(O)CCCCC1CCSS1` (racemic) [(±)-α-Lipoic acid], where the note is “additive concentration […]”, the Results entry was “No Improvement”.
Turning to `O[C@H](CS)[C@H](O)CS` (racemic) [Dithiothreitol], the Results entry (Additive Concentration 1 uM) is on record as “No Improvement”, the Results result (additive concentration 10 uM) was “No Improvement”, the Results entry (additive concentration 0.1 mM) was “No Improvement” and the Results entry (additive concentration 1 mM) is “No Improvement”.
Consider `C=CCn1cc[n+](C)c1.[Cl-]` [1-Allyl-3-methylimidazolium Chloride], for which the Results entry by setting is: (additive concentration 0.01 mM) “No Improvement”; (additive concentration 0.1 mM) “No Improvement”; (additive concentration 1 mM) “No Improvement”.
Take `CCCCn1cc[n+](C)c1.[Cl-]` [1-Butyl-3-methylimidazoium Chloride]: the Results entry runs as follows: (additive concentration 0.01 mM) “No Improvement”; (additive concentration 0.1 mM) “No Improvement”; (additive concentration 1 mM) “No Improvement”.
With `O.O=c1cc(-c2ccccc2)oc2c(O)c(O)ccc12` [7,8 dihydroxyflavone hydrate], the Results result (additive concentration 0.01 mM) is “No Improvement”, the Results entry (additive concentration 0.1 mM) was “No improvement” and the Results entry (additive concentration 1 mM) is recorded as “No Improvement”.
`O=P(O)(O)CN(CP(=O)(O)O)CP(=O)(O)O` [ATMP]: the Results entry is “No Improvement” (additive concentration 0.02 mM), “No Improvement” (additive concentration 0.2 mM) and “No Improvement” (additive concentration 2 mM).
For the compound `C=CC1=C(C)/C(=C/C2=NC(=C\c3[nH]c(/C=C4\NC(=O)C(C)=C4C=C)c(C)c3CCC(=O)O)/C(CCC(=O)O)=C2C)NC1=O` [Biliverdin], the Results entry (additive concentration 0.00003%) was “No Improvement”, the Results result (additive concentration 0.00030%) was “No Improvement”, the Results entry (additive concentration 0.00300%) was “No Improvement” and the Results result (additive concentration 0.03000%) was “No Improvement”.
On to `O=C(/C=C/C(=O)Oc1c(Br)cc(Br)cc1C(=O)O)Oc1c(Br)cc(Br)cc1C(=O)O` [Bis(3,5-dibromosalilcyl)fumarate], for which the Results result (additive concentration 5 uM) is “No Improvement”, the Results entry (additive concentration 10 uM) was “No Improvement” and the Results entry (additive concentration 100 uM) is recorded as “No Improvement”.
As for `N[C@@H](CS)C(=O)O` [Cysteine], the Results entry by setting is: (Additive Concentration 0.1 uM) “No Improvement”; (Additive Concentration 1 uM) “No Improvement”; (additive concentration 5 uM) “No Improvement”; (additive concentration 0.01 mM) “No Improvement”; (additive concentration 0.1 mM) “No Improvement”; (additive concentration 1 mM) “No Improvement”. Moreover, the Results entry (additive concentration 10 mM) is given as “No Improvement”.
Take `O=c1c(-c2ccc(O)cc2)coc2cc(O)ccc12` [Daidzein]: the Results result (additive concentration 0.01 mM) is on record as “No Improvement”, the Results entry (additive concentration 0.1 mM) is recorded as “No Improvement” and the Results entry (additive concentration 1 mM) is listed as “No Improvement”.
Turning to `O=C(O)[C@@H](COP(=O)(O)O)OP(=O)(O)O` [Diphosphoglycerate (DPG)], the Results result (additive concentration 0.0005 mM) is given as “No Improvement”; the Results entry (additive concentration 0.5 uM) was “No Improvement”; the Results result (additive concentration 0.002 mM) is listed as “No Improvement”; the Results result (additive concentration 5 uM) is given as “No Improvement”; the Results result (additive concentration 50 uM) was “No Improvement”; the Results result (additive concentration 1 mM) is “No Improvement”.
As to `O=C([O-])CN(CCN(CC(=O)[O-])CC(=O)O)CC(=O)O.[Na+].[Na+]` [EDTA: Disodium Salt], the Results result runs as follows: (additive concentration 5 mM) “No Improvement”; (additive concentration 10 mM) “No Improvement”; (additive concentration 30 mM) “No Improvement”.
For `CC1=NCC[C@@H](C(=O)O)N1` [Ectoine], the Results result was “No Improvement” (additive concentration 0.718 mM) and “No Improvement” (additive concentration 5 mM).
As to `OC[C@H]1OC(O)[C@H](O)[C@@H](O)[C@@H]1O` (stereo partly shown) [Glucose], the Results entry by setting is: (additive concentration 72 uM) “No Improvement”; (additive concentration 720 uM) “No Improvement”.
For `N[C@@H](CCC(=O)N[C@@H](CS)C(=O)NCC(=O)O)C(=O)O` [Glutathione], the Results entry runs as follows: (additive concentration 10 uM) “No Improvement”; (additive concentration 100 uM) “No Improvement”; (additive concentration 1 mM) “No Improvement”; (additive concentration 3 mM) “No Improvement”.
Regarding `NCC(=O)O` [Glycine (no sample)], the Results entry is “No improvement”.
Consider `C=CC1=C(C)c2cc3[n-]c(cc4[n-]c(cc5nc(cc1n2)C(C)=C5C=C)c(C)c4CCC(=O)O)c(CCC(=O)O)c3C.O.[Fe+2]` [Hematin], for which, under “additive concentration 6 uM”, the Results result was “Improvement in % Hb”.
Turning to `C=CC1=C(C)c2cc3[n-]c(cc4[n-]c(cc5nc(cc1n2)C(C)=C5C=C)c(C)c4CCC(=O)O)c(CCC(=O)O)c3C.[Cl-].[Fe+3]` [Hemin (DMSO)], under “additive concentration 0.0003%”, the Results result was “Improvement in % Hb”.
Consider `C=CC1=C(C)c2cc3[n-]c(cc4nc(cc5[n-]c(cc1n2)c(C)c5C=C)C(C)=C4CCC(=O)O)c(CCC(=O)O)c3C.[Cl-].[Fe+3]` [Hemin (H2O:NaOH)], for which the Results result runs as follows: (additive concentration 0.00005%) “Improvement in % Hb”; (additive concentration 0.00005%, pH 6.5) “Improvement in % Hb”; (additive concentration 0.00009%) “Improvement in % Hb”; (additive concentration 0.00009%, pH 6.5) “Improvement in % Hb”; (additive concentration 0.0003%) “Improvement in % Hb”; (additive concentration 0.003%) “Improvement in % Hb”. Further, the Results result (additive concentration 0.003%, pH 6.5) is given as “Improvement in % Hb”; the Results result (additive concentration […]) is recorded as “Improvement in % Hb”; the Results entry (additive concentration […], pH 6.5) was “Improvement in % Hb”.
With `C1N2CN3CN1CN(C2)C3` [Hexamethylenetetramine], the Results entry was “No Improvement” (additive concentration 14 mM), “No Improvement” (additive concentration 140 mM) and “No Improvement” (additive concentration 500 mM).
For `N[C@@H](Cc1c[nH]cn1)C(=O)O` [Histidine], the Results result was “No Improvement” (additive concentration 0.0028 mM), “No Improvement” (additive concentration 0.0228 mM) and “No Improvement” (additive concentration 0.228 mM).
`NO` [Hydroxylamine]: the Results entry is reported as “No Improvement” (additive concentration 25 uM) and “No Improvement” (additive concentration 0.5 mM).
As for `c1c[nH]cn1` [Imidazole], the Results entry is recorded as “No Improvement” (additive concentration 25 uM) and “No Improvement” (additive concentration 0.5 mM).
In the case of `O=C(O)CC(NC(CC(=O)O)C(=O)O)C(=O)O` (stereo not shown) [Iminodisuccinic acid], under “additive concentration 10 mM”, the Results entry is on record as “No Improvement”.
On to `NCCCC[C@H](N)C(=O)O` [Lysine], for which the Results entry is “No Improvement” (additive concentration 0.0687 mM), “No Improvement” (additive concentration 0.687 mM) and “No Improvement” (additive concentration 6.87 mM).
For the compound `O=S(=O)([O-])CS(=O)(=O)[O-].[K+].[K+]` [Methanedisulfonic acid dipotassium salt], the Results result (additive concentration 10.69 mM) is on record as “No Improvement”.
Take `O=S(=O)([O-])CCCS(=O)(=O)[O-].[Na+].[Na+]` [Propanedisulfonic acid disodium salt]: the Results result (additive concentration 0.4 mM) is “No Improvement”, the Results entry (additive concentration 4 mM) is given as “No Improvement” and the Results entry (additive concentration 40 mM) is given as “No Improvement”.
For `CC(O)CO` (stereo not shown) [Propylene Glycol], the Results result is recorded as “No Improvement” (Additive Concentration 0.10%), “No Improvement” (Additive Concentration 0.50%) and “No Improvement” (Additive Concentration 1%).
As to `C=CC1=C(C)c2cc3[n-]c(cc4nc(cc5[n-]c(cc1n2)c(C)c5C=C)C(C)=C4CCC(=O)O)c(CCC(=O)O)c3C.[Cl-].[Cr+3]` [Protoporphyrin IX Chromium (Vendor 1)], the Results result is, setting by setting: (additive concentration 1.25 uM) “Improvement in % Hb”; (additive concentration 5 uM) “Improvement in % Hb”.
As to `C=CC1=C(C)c2cc3[n-]c(cc4nc(cc5[n-]c(cc1n2)c(C)c5C=C)C(C)=C4CCC(=O)O)c(CCC(=O)O)c3C.[Cl-].[Cr+3]` [Protoporphyrin IX Chromium (Vendor 2)], the Results entry by setting is: (additive concentration 1.25 uM) “Improvement in % Hb”; (additive concentration 5 uM) “Improvement in % Hb”.
With `C=CC1=C(C)c2cc3[n-]c(cc4nc(cc5[n-]c(cc1n2)c(C)c5C=C)C(C)=C4CCC(=O)O)c(CCC(=O)O)c3C.[Cl-].[Co+3]` [Protoporphyrin IX Cobalt (Vendor 1)], the Results result is reported as “Improvement in % Hb” (additive concentration 1.25 uM) and “Improvement in % Hb” (additive concentration 5 uM).
Consider `C=CC1=C(C)c2cc3[n-]c(cc4nc(cc5[n-]c(cc1n2)c(C)c5C=C)C(C)=C4CCC(=O)O)c(CCC(=O)O)c3C.[Cl-].[Co+3]` [Protoporphyrin IX Cobalt (Vendor 2)], for which the Results result is listed as “Improvement in % Hb” (additive concentration 1.25 uM) and “Improvement in % Hb” (additive concentration 5 uM).
